# From patent US11845959B2, “Identification of factor that promotes human HSC self-renewal” (THE REGENTS OF THE UNIVERSITY OF CALIFORNIA, priority 2016, dated 2023)
# System: human HSPC
# Assay: Flavopiridol treatment of human HSPC, HSPC expansion in culture (FACS, total HSPC expansion over time)
# Format: cell-based
# Settings: 100 nM, similarly to MLLT3 overexpression
# From the text: We investigated whether an effect on transcription elongation by a different factor might change the effect. We determined that Treatment of human HSPC with Flavopiridol, a regulator of transcription elongation machinery, expands HSPC in culture.
smiles,measurement,value
CN1CC[C@H](c2c(O)cc(O)c3c(=O)cc(-c4ccccc4Cl)oc23)[C@H](O)C1 [Flavopiridol],HSPC expansion in culture,sustained HSPC expansion in culture
